Key:
[1] = system: variety of crops and weed species; assay: Pre- and post-emergence herbicide tests, overall assessment of Tables III-VI; assay type: in vivo; settings: data of Tables III-VI
Protocol: All crop and weed species were planted individually in 3' plastic pots containing potting soil. Four seeds each of corn, cotton, and snapbeans were seeded to a depth equal to the diameter of the seed. All other species were surface seeded and sprinkled with screened soil in an amount sufficient to cover the seed. Immediately after planting, all pots were watered by sub-irrigation in greenhouse trays. Pots for the pre-emergence phase were seeded one day before treatment.
Compounds were tested at rates of application equivalent to 8 lbs. of actual compound per acre in a spray volume of 38 gallons per acre. Spray hood constants required to deliver the above volume are as follows:
Two weeks after treatment, pre- and post-emergence injury or control was visually rated, and the results were as shown in the following tables. Pre-emergence data are provided in TABLE III and post-emergence data are provided in TABLE IV, for compounds having the formula illustrated in TABLE I. Correspondingly, pre-emergence and post-emergence data, respectively, are set forth in TABLES V AND VI, for compounds having the formula illustrated in TABLE II.

Crabgrass (CG) [2] = assay: Pre-emergence herbicide test; assay type: in vivo, Digitaria sanquinalis; settings: Digitaria sanguinalis, pre-emergence, 336 h; 8 lb/acre; two weeks after treatment
Procedure, shortened: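 Crabgrass (Digitaria sanquinalis) was surface seeded in 3' plastic pots of potting soil, covered with screened soil, and watered by sub-irrigation in greenhouse trays. Pots were seeded one day before spraying in a hood with a moving belt and fixed nozzle. Plants stayed in the greenhouse on sub-irrigation, and pre-emergence control was rated visually two weeks after treatment.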

Johnson grass (JG) [3] = assay: Pre-emergence herbicide test; assay type: in vivo, Sorgum helepense; settings: Sorghum halepense, 336 h, 8 lb/acre, two weeks after treatment
Procedure, shortened: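 Pots seeded one day before spraying; compound applied pre-emergence at 8 lbs/acre (or 4 lbs/acre) in 38 gallons/acre spray volume. Sub-irrigated in greenhouse; injury/control rated visually two weeks after treatment.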

Bean (BN) [4] = assay: Pre-emergence herbicide test; assay type: in vivo, Phaseolus vulgaris var. Black Valentine; settings: Phaseolus vulgaris, 336 h, 8 lb/acre, two weeks after treatment
Procedure, shortened: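 Black Valentine bean was seeded in potting soil one day before spraying. Compound was applied pre-emergence at 8 lbs/acre (also 4 lbs/acre) in 38 gallons per acre. Plants were sub-irrigated and injury or control was rated visually after two weeks.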

Crabgrass (CG) [5] = assay: Post-emergence herbicide test; assay type: in vivo, Digitaria sanquinalis; settings: Digitaria sanguinalis, post-emergence, 336 h, two weeks after treatment; for pest or weed control at 8966.8 g/ha: 8 lb/acre
Procedure, shortened: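 Crabgrass (Digitaria sanquinalis) was surface seeded individually in 3' plastic pots of potting soil, covered with screened soil, and watered by sub-irrigation in greenhouse trays. Planting was staggered so seedlings reached the target stage together. Post-emergence sprays were applied in a hood with a removable belt and fixed nozzle, and control was visually rated two weeks after treatment.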

Amaranth pigweed (PW) [6] = assay: Pre-emergence herbicide test; assay type: in vivo, Amaranthus retroflexus; settings: 336 h, 8 lb/acre, two weeks after treatment
Procedure, shortened: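 Pigweed was surface-seeded in potted soil one day before spraying at 8 lbs compound per acre, or 4 lbs/acre, in 38 gallons per acre. Pots were kept in the greenhouse with sub-irrigation only; injury or control was rated visually two weeks after treatment.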

Turnip (TP) [7] = assay: Pre-emergence herbicide test; assay type: in vivo, Brassica sp.; settings: Brassica rapa, pre-emergence, 336 h; 8 lb/acre; two weeks after treatment
Procedure, shortened: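 Turnip (Brassica sp.) seeds were surface sown in 3' plastic pots of potting soil, covered with a thin layer of screened soil, and sub-irrigated in greenhouse trays. Pots were seeded one day ahead of treatment, sprayed pre-emergence under a hood with a fixed nozzle and moving belt, then kept in the greenhouse.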

Corn (CN) [8] = assay: Pre-emergence herbicide test; assay type: in vivo; settings: Zea mays, 336 h, 8 lb/acre, two weeks after treatment
Procedure, shortened: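 Four corn seeds per pot, sown at seed-diameter depth one day before spraying, got soil surface treatment at 8 lbs/acre (4 lbs/acre formulations also prepared) in 38 gallons/acre. Pots were greenhouse-held with sub-irrigation only. Injury or control was scored visually two weeks after treatment.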

Barnyard grass (BG) [9] = assay: Pre-emergence herbicide test; assay type: in vivo; settings: Echinochloa crus-galli, 336 h, 8 lb/acre, two weeks after treatment
Procedure, shortened: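 Barnyard grass surface-seeded in potting soil and sprayed pre-emergence one day after seeding, at 8 or 4 lb compound/acre in 38 gal/acre spray volume. Pots kept in greenhouse with sub-irrigation only; injury or control rated visually two weeks after treatment.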

Cotton (CT) [10] = assay: Pre-emergence herbicide test; assay type: in vivo, Gossypium hirsutum var. DPL smooth leaf; settings: Gossypium hirsutum, 336 h, 8 lb/acre, two weeks after treatment
Procedure, shortened: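 Crop and weed species seeded one day before treatment, then sprayed pre-emergence at 8 lbs actual compound per acre (also 4 lbs/acre formulations) in 38 gallons per acre. Pots kept in greenhouse with sub-irrigation only; injury or control visually rated two weeks after treatment.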

[11] = system: Yellow foxtail grass (YF); assay: Post-emergence herbicide test; assay type: in vivo, Setaria glauca; settings: Setaria, 336 h, two weeks after treatment; for pest or weed control at 8966.8 g/ha: 8 lb/acre
Procedure, shortened: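 Potted seedlings grown in greenhouse, planting staggered to reach the target stage together, then sprayed post-emergence at 8 lbs actual compound/acre in 38 gallons/acre (4 lbs/acre formulations also prepared). Sub-irrigated afterwards. Injury or control rated visually two weeks after treatment.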

Barnyard grass (BG) [12] = assay: Post-emergence herbicide test; assay type: in vivo; settings: Echinochloa crus-galli, 336 h, two weeks after treatment; for pest or weed control at 8966.8 g/ha: 8 lb/acre
Procedure, shortened: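 Greenhouse pot-grown barnyard grass seedlings sprayed post-emergence at 8 lbs active compound per acre (some at 4 lbs/acre) in 38 gallons per acre, then sub-irrigated. Injury or control rated visually two weeks after treatment.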

[13] = system: Yellow foxtail grass (YF); assay: Pre-emergence herbicide test; assay type: in vivo, Setaria glauca; settings: Setaria, 336 h, 8 lb/acre, two weeks after treatment
Procedure, shortened: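 Seeds surface-sown in potting soil one day before spraying; compounds applied pre-emergence at 8 or 4 lbs/acre in 38 gallons/acre spray. Pots held in greenhouse with sub-irrigation only. Injury or control rated visually two weeks after treatment.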

Amaranth pigweed (PW) [14] = assay: Post-emergence herbicide test; assay type: in vivo, Amaranthus retroflexus; settings: 336 h, two weeks after treatment; for pest or weed control at 8966.8 g/ha: 8 lb/acre
Procedure, shortened: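 Pot-grown pigweed was sprayed post-emergence at the 1–2 true-leaf stage with compound at rates equivalent to 8 lbs per acre (formulations also prepared for 4 lbs/acre) in 38 gallons per acre, using a hood with fixed nozzle. Plants were sub-irrigated in the greenhouse, and injury or control was rated visually two weeks after treatment.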

Johnson grass (JG) [15] = assay: Post-emergence herbicide test; assay type: in vivo, Sorgum helepense; settings: Sorghum halepense, 336 h, two weeks after treatment; for pest or weed control at 8966.8 g/ha: 8 lb/acre
Procedure, shortened: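 Greenhouse pot-grown seedlings sprayed post-emergence at 8 lbs compound per acre (some at 4 lbs/acre) in 38 gallons per acre spray volume. Sub-irrigated thereafter. Injury/control rated visually two weeks after treatment.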

Corn (CN) [16] = assay: Post-emergence herbicide test; assay type: in vivo; settings: Zea mays, 336 h, two weeks after treatment; for pest or weed control at 8966.8 g/ha: 8 lb/acre
Procedure, shortened: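 Greenhouse seedlings grown in potting soil and sprayed post-emergence at 8 lbs compound/acre (formulations also made for 4 lbs/acre) in 38 gallons/acre spray volume. Watering by sub-irrigation only. Injury or control rated visually two weeks after treatment.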

Bean (BN) [17] = assay: Post-emergence herbicide test; assay type: in vivo, Phaseolus vulgaris var. Black Valentine; settings: Phaseolus vulgaris, post-emergence, 336 h, two weeks after treatment; for pest or weed control at 8966.8 g/ha: 8 lb/acre
Procedure, shortened: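 Snapbean (Phaseolus vulgaris var. Black Valentine) was tested post-emergence. Four seeds were sown in 3' plastic pots of potting soil at a depth equal to the seed diameter, then sub-irrigated in greenhouse trays. Planting dates were staggered so plants were sprayed once primary leaves had expanded, with the growing point at the primary leaf nodes.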

Turnip (TP) [18] = assay: Post-emergence herbicide test; assay type: in vivo, Brassica sp.; settings: Brassica rapa, post-emergence, 336 h, two weeks after treatment; for pest or weed control at 8966.8 g/ha: 8 lb/acre
Procedure, shortened: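 A greenhouse post-emergence herbicide test on turnip. Seeds were sown on the surface of potting soil in 3' plastic pots, lightly covered with screened soil and watered from below. Planting was timed so seedlings had 1 or 2 true leaves above the cotyledons at spraying, done in a hood with a fixed nozzle. Control or injury was scored by eye after two weeks.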

Cotton (CT) [19] = assay: Post-emergence herbicide test; assay type: in vivo, Gossypium hirsutum var. DPL smooth leaf; settings: Gossypium hirsutum, post-emergence, 336 h, two weeks after treatment; for pest or weed control at 8966.8 g/ha: 8 lb/acre
Procedure, shortened: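 Cotton (Gossypium hirsutum var. DPL smooth leaf) was grown in 3' plastic pots of potting soil, four seeds per pot, planted at a depth equal to the seed diameter and watered by sub-irrigation. At the stage of expanded cotyledons with the first true leaf 1' long, plants were sprayed post-emergence in a hood with a fixed nozzle over a moving belt. Percent control was rated visually two weeks later.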

Compound | herbicidal effectiveness / selectivity, in words [1] | pest or weed control at 8966.8 g/ha (Crabgrass (CG) [2]) | pest or weed control at 8966.8 g/ha (Johnson grass (JG) [3]) | pest or weed control at 8966.8 g/ha (Bean (BN) [4]) | pest or weed control at 8966.8 g/ha (Crabgrass (CG) [5]) | pest or weed control at 8966.8 g/ha (Amaranth pigweed (PW) [6]) | pest or weed control at 8966.8 g/ha (Turnip (TP) [7]) | pest or weed control at 8966.8 g/ha (Corn (CN) [8]) | pest or weed control at 8966.8 g/ha (Barnyard grass (BG) [9]) | pest or weed control at 8966.8 g/ha (Cotton (CT) [10]) | pest or weed control at 8966.8 g/ha [11] | pest or weed control at 8966.8 g/ha (Barnyard grass (BG) [12]) | pest or weed control at 8966.8 g/ha [13] | pest or weed control at 8966.8 g/ha (Amaranth pigweed (PW) [14]) | pest or weed control at 8966.8 g/ha (Johnson grass (JG) [15]) | pest or weed control at 8966.8 g/ha (Corn (CN) [16]) | pest or weed control at 8966.8 g/ha (Bean (BN) [17]) | pest or weed control at 8966.8 g/ha (Turnip (TP) [18]) | pest or weed control at 8966.8 g/ha (Cotton (CT) [19]) | also measured
CN(C)C(=O)Nc1nnc(C(F)(F)F)s1 [Example 2, 1,1-Dimethyl-3-[5-Trifluoromethyl-2-(1,3,4-Thiadiazolyl)] Urea] | extremely effective when applied to a variety of crops and weed species | 90% | 90% | 80% | 60% | 90% | 100% | 50% | 90% | 70% | 60% | 60% | 90% | 90% | 40% | 100% | 60% | 80% | 90% | pest or weed control (Crabgrass (CG) [5]; 2 lb/acre): 100%; pest or weed control at 4483.4 g/ha (Crabgrass (CG) [5]; 4 lb/acre): 80%; pest or weed control ([11]; 2 lb/acre): 90%; pest or weed control at 4483.4 g/ha ([11]; 4 lb/acre): 90%; pest or weed control at 2241.7 g/ha (Barnyard grass (BG) [12]; 2 lb/acre): 90%; pest or weed control at 4483.4 g/ha (Barnyard grass (BG) [12]; 4 lb/acre): 90%; pest or weed control at 2241.7 g/ha (Amaranth pigweed (PW) [14]; 2 lb/acre): 100%; pest or weed control at 4483.4 g/ha (Amaranth pigweed (PW) [14]; 4 lb/acre): 100%; pest or weed control (Johnson grass (JG) [15]; 2 lb/acre): 90%; pest or weed control at 4483.4 g/ha (Johnson grass (JG) [15]; 4 lb/acre): 30%; pest or weed control (Corn (CN) [16]; 2 lb/acre): 100%; pest or weed control at 4483.4 g/ha (Corn (CN) [16]; 4 lb/acre): 100%; pest or weed control at 2241.7 g/ha (Bean (BN) [17]; 2 lb/acre): 80%; pest or weed control at 4483.4 g/ha (Bean (BN) [17]; 4 lb/acre): 70%; pest or weed control at 2241.7 g/ha (Turnip (TP) [18]; 2 lb/acre): 100%; pest or weed control at 4483.4 g/ha (Turnip (TP) [18]; 4 lb/acre): 90%; pest or weed control at 2241.7 g/ha (Cotton (CT) [19]; 2 lb/acre): 100%; pest or weed control at 4483.4 g/ha (Cotton (CT) [19]; 4 lb/acre): 90%
CSc1nnc(N(C)C(=O)N(C)C)s1 [Example 5, 1,1,3-trimethyl-3-[5-methylthio-2-(1,3,4-thiadiazolyl)] urea] | extremely effective when applied to a variety of crops and weed species | 100% | 50% | 90% | 100% | 100% | 100% | 70% | 80% | 90% | 100% | 100% | 90% | 100% | 90% | 100% | 100% | 100% | 100% | 

— patent US4175081A, “5-Substituted thiadiazole ureas” (priority 1977, dated 1979)
